This assay relates to RXF-631 renal. Kind of assay: inhibition of tumour cell growth, NCI panel, 48 h.

The structures appear in SMILES notation.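 Method: 48-hour compound exposure of cells in 96-well plates, five concentrations, linear interpolation of endpoints. TGI: total growth inhibition.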

Compound `Nc1ccc(-c2nc3ccccc3s2)cc1` showed a TGI of 46.2 µM.

The record behind these values is PubChem BioAssay (NCI).
